What was measured:
[1] = target: T1, human GV sPLA2 (Homo sapiens, UniProt P39877); assay: In vitro mixed micelle assay, GV sPLA2; type: biochemical; conditions: for inhibition at 0.091 mole fraction: mixed micelles, 0.091 mole fraction of inhibitor, Table 6, read-out: GV sPLA2 % Inhib
T1 sequence (P39877 21-138): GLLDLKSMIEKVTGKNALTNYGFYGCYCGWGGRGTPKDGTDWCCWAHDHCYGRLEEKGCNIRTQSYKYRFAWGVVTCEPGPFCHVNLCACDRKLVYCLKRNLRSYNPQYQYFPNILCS
Experimental: At first, the percent of inhibition for each PLA2 enzyme at 0.091 mole fraction of each inhibitor was determined. […] The XI(50) is the mole fraction of the inhibitor in the total substrate interface required to inhibit the enzyme activity by 50%. […] (ii) GVI iPLA2 substrate mixed-micelles were composed of 400 μM Triton X-100, 98.3 μM PAPC, and 1.7 μM ^14C-labeled PAPC in buffer containing 100 mM HEPES, pH 7.5, 2 mM ATP, and 4 mM DTT; (iii) GV sPLA2 substrate mixed-micelles were composed of 400 μM Triton X-100, 98.3 μM PAPC, and 1.7 μM ^14C-labeled PAPC in buffer containing 50 mMTris, pH 8.0, and 5 mM […] CaCl2.

[2] = tested on: PGE2; assay: Plasma PGE2 EIA, prophylactic CIA study; type: in vivo, male DBA/1 mice
Experimental: PGE2 is recognized as an important contributor to the joint inflammation in rheumatoid arthritis,^60 and we investigated if plasma PGE2 levels were changed in response to treatment. […] There were no significant differences between the treatment groups (p>0.05).
(§1) PGE2 EIA analysis of blood plasma from the prophylactic and therapeutic CIA studies was performed according to kit protocol. Plasma samples were diluted 1:1000-1:6000 in EIA buffer and allowed to hybridize over-night (18 hrs, 4° C.). The plate was read using a Multiscan plate reader (Ascent Labsystems) (OD550 nm). The corresponding Ascent software for Multiscan, Version 2.4.1 was used to obtain the data. PGE2 levels for all treatments are shown relative to the DMSO-treated vehicle arthritic mice (n=10-11 mice in each category±SD).
(§2) For the prophylactic and the therapeutic studies, CIA was induced in male DBA/1 mice (except naïve mice) by immunization with 0.1 mL emulsion containing an equal volume of bovine type II collagen solution (2 mg/mL) and Freuds Complete Adjuvant at the tail base. The first injection was given on Day 0 and the second injection as booster was given on Day 21 (41-43). COMPOUND A, vehicle (DMSO) and MTX (0.3 mg/kg) were administered daily, Enbrel (25 mg/kg) was administrated twice a week. For the prophylactic study, treatment started one hour before the second collagen injection and continued for 21 days except for the histology groups that were sacrificed at Day 13 ([…]). For the therapeutic study, treatment started at Day 28 and continued for 14 days.

[3] = tested on: PGE2; assay: Plasma PGE2 EIA, therapeutic CIA study; type: in vivo, male DBA/1 mice
Experimental: There were no significant differences between the treatment groups (p>0.05).
as §1, §2

[4] = tested on: collagen-induced arthritis (CIA) mouse model; assay: Therapeutic collagen-induced arthritis (CIA) study; type: in vivo, male DBA/1 mice; conditions: Days 36 to 41; Compound A 30 mg/kg ip daily; Enbrel 25 mg/kg twice a week
Text: The therapeutic effect of Compound A on CIA model in male DBA/1 mice following ip administration, treatment starting 7 days after the last immunization was explored. CIA developed rapidly in mice immunized with CII, with maximum AI of 10.2 observed at 39 days post immunization. The AI and incidence of vehicle- and Compound A treated groups increased in a time-dependent mode from Days 29 to 41. […] Compound A and Enbrel performed equally well; there were no significant difference between these treatments groups.
Separate prophylactic and therapeutic efficacy studies of COMPOUND A were performed. […] Body weights were measured and recorded prior to randomization and then once daily during the study. Food consumption was measured and recorded daily. […] Necropsy examinations were performed at study termination; plasma samples were collected, organ weights were recorded […]
CIA Assessment and Treatment. CIA was assessed in mice by two blinded observers to measure paw swelling with a capacity measurement method on Day 0, Day 20, Day 22, Day 25, Day 27, Day 29, Day 32, Day 34, Day 36, Day 39 and Day 41 after the first injection. […] However, the values measured were not included in the mean value calculations of the main groups. […]

[5] = tested on: PGE2; assay: PGE2-assay (Tables 2 and 4); type: cell-based; conditions: Table 2; head says % inhibition, cells print μM
Text: Experimental procedures suitable for the formation and testing of these compounds can be found in WO2011/039365 as well as references cited therein.

| Compound | inhibition at 0.091 mole fraction [1] | melting point | further results |
| --- | --- | --- | --- |
| O=C(COc1ccc(F)cc1)c1nccs1 [Compound C, 2-(4-Fluorophenoxy)-1-(thiazol-2-yl)ethanone] | 4% | 74 to 77 °C | – |
| CCCCCCCCc1ccc(OCC(=O)c2nc(C(=O)OC)cs2)cc1 [Compound A, Methyl 2-(2-(4-octylphenoxy)acetyl)thiazole-4-carboxylate] | 41% | – | GV sPLA2 % Inhibition ([1]; Tables 2 and 4): 41.1%; plasma PGE2 level ([2]; prophylactic CIA study, Compound A 7.5 mg/kg, MTX 0.3 mg/kg, vehicle 223.4±107, mean ± SD): 139.8 ± 92 ng/mL; reduction of plasma PGE2 levels ([2]; prophylactic mode, vs vehicle): about 40%; plasma PGE2 level ([3]; therapeutic CIA study, Compound A 30 mg/kg, Enbrel 25 mg/kg, vehicle 231.1±110, mean ± SD): 139 ± 55 ng/mL; reduction of plasma PGE2 levels ([3]; therapeutic mode, vs vehicle): about 40%; arthritic index (AI) in comparison to the CIA control group (in words) [4]: significantly decreased; IC50 [5]: ~0.75 µM |
| O=C(COc1ccccc1)c1nccs1 [Compound D, 2-Phenoxy-1-(thiazol-2-yl)ethanone] | 0% | 77 to 79 °C | – |
| O=C(COc1ccc(-c2ccccc2)cc1)c1nccs1 [Compound B, 2-(Biphenyl-4-yloxy)-1-(thiazol-2-yl)ethanone] | 41% | 130 to 133 °C | IC50 [5]: ~6 µM |

More lines, main results first:

| inhibition at 0.091 mole fraction [1] | melting point | Compound | further results |
| --- | --- | --- | --- |
| 48% | – | CCCCCCCCCCCCOCC(=O)c1nc(C(=O)OCC)cs1 [Compound W, Ethyl 2-(2-(dodecyloxy)acetyl)thiazole-4-carboxylate] | – |
| 46% | – | CCCCCCCCc1ccc(OCC(=O)c2nccs2)cc1 [Compound T, 2-(4-Octylphenoxy)-1-(thiazol-2-yl)ethanone] | – |
| 55% | – | CCCCCCCCCCCCOCC(=O)c1nc(CC(=O)OCC)cs1 [Compound X, Ethyl 2-(2-(2-(dodecyloxy)acetyl)thiazol-4-yl)acetate] | – |
| 50% | – | CCCCCCCCc1ccc(OCC(=O)c2nc(CC(=O)OCC)cs2)cc1 [Compound Y, Ethyl 2-(2-(2-(4-octylphenoxy)acetyl)thiazol-4-yl)acetate] | – |
